We go through 20 compounds from US10174000B2, “Bicyclic-fused heteroaryl or aryl compounds as IRAK4 modulators” (PFIZER INC., priority 2015, dated 2019).

Assay [1] concerns the target human IRAK4 FL (Full Length), phosphorylated (Homo sapiens (Human), UniProt Q9NWZ3). Nature of the assay: IRAK4 Enzymatic DELFIA Assay, Protocol A. It counts as biochemical. Particulars: 600 μM ATP (KM); full-length phosphorylated recombinant human IRAK4. The procedure: IRAK4 Enzymatic DELFIA Assay, Protocol A.
This is an in vitro assay to measure IRAK4 enzymatic activity utilizing the DELFIA (Dissociation-Enhanced Lanthanide Fluorescent Immunoassay, Perkin-Elmer) platform, with the human IRAK4 FL (Full Length) construct to characterize IRAK4 inhibitor and control compounds at 600 μM ATP (KM). The final amount of enzyme in the assay is 0.1 nM IRAK4 FL, final concentration of substrate is 50 nM, and final concentration of DMSO is 2.5%.
The test compound was solubilized in DMSO to a stock concentration of 30 mM. The dose response plates were prepared with a 4 mM primary compound concentration (40-fold multiple of the final in-assay concentration), and diluted in DMSO in a four-fold series for a total of 11 data points. 1 μL of the compound dilution plate is spotted into ultra-clear polypropylene, 384-well, U-bottom plates (Corning Life Sciences).
To begin the assay, 19 μL of reaction mixture containing 20 mM HEPES pH=7.5, 5 mM MgCl2, 0.0025% Brij-35, 600 μM ATP, 0.21 nM Full-length phosphorylated recombinant human IRAK4 (GenBank ID AF445802) are aliquoted into the polypropylene, 384-well, U-bottom plates containing 1 μL of test compound, mixed briefly and incubated for 20 minutes at room temperature (RT). Then, 20 μL of 20 mM HEPES pH=7.5, 5 mM MgCl2, 0.0025% Brij-35, 600 μM ATP, and 100 nM ERM-biotinylated peptide (AGAGRDKYKTLRQIR) is added to start the reaction. The reaction is incubated for 60 minutes at RT and stopped by the addition of 20 μL 0.3M EDTA.
(§1) 50 μL of the reaction mixture was transferred to a streptavidin-coated detection plate (DELFIA streptavidin coated plates, 384-well, white plates, Perkin-Elmer Life Sciences) and incubated for 30 minutes at RT. The plates were washed 4× with 75 μL per well of PBS containing 0.05% Tween-20. Plates were then incubated with 50 μL per well of antibody cocktail of Anti-pERM antibody at 0.125 μg/mL (Cell Signaling Technology), plus Anti-Rabbit IgG EuN1 at 0.25 μg/ml (Perkin-Elmer Life Sciences) in a solution of 10 mM MOPS pH=7.5, 150 mM NaCl, 0.05% Tween-20, 0.02% NaN3, 1% BSA, 0.1% Gelatin for 45 minutes. The plates were then washed as before. 50 μL per well of DELFIA Enhancement Solution (Perkin-Elmer Life Sciences) was added to the plate and incubated for 15 minutes at RT prior to being read on an Envision Model 2104 multi-label reader using a 340 nm excitation wavelength and a […] emission wavelength for detection.

The target in assay [2] is inactive, unphosphorylated (0-phos), human IRAK4 FL (Full Length) (Homo sapiens (Human), UniProt Q9NWZ3). The assay is described as follows: IRAK4 Enzymatic DELFIA Assay, Protocol B. Particulars: 600 μM ATP (KM), full-length recombinant human IRAK4. Format: biochemical. The protocol:
IRAK4 Enzymatic DELFIA Assay, Protocol B.
The test compound is solubilized in DMSO to a stock concentration of 30 mM. The dose response plates were prepared with a 4 mM primary compound concentration, serialized in DMSO and spotted (1 μL) into 384-well polypropylene plates as before.
20 uL of 20 mM HEPES pH=7.5, 5 mM MgCl2, 0.0025% Brij-35, 600 μM ATP, and 100 nM ERM-biotinylated peptide (AGAGRDKYKTLRQIR) was added to start the reaction, which was run for 90 minutes at RT and stopped by the addition of 20 μL 0.3M EDTA.
as §1

For orientation: pIC50 means the IC50 on a negative log10 scale, so that one unit is a factor of ten.

pIC50: −log10 of the molar value.

Sequence of inactive, unphosphorylated (0-phos), human IRAK4 FL (Full Length) (Q9NWZ3 whole entry): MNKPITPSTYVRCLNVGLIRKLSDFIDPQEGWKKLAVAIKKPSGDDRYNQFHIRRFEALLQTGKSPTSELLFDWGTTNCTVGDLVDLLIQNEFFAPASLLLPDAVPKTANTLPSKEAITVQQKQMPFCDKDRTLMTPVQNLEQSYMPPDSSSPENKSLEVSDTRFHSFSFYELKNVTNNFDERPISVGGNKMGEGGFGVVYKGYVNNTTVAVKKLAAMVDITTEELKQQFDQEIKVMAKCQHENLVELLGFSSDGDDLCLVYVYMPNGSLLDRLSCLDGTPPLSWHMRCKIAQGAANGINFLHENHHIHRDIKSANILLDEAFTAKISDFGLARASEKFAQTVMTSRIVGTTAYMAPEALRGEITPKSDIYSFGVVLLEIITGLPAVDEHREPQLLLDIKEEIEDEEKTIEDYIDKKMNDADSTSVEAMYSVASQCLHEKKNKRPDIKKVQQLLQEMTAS
Sequence of human IRAK4 FL (Full Length), phosphorylated (Q9NWZ3 whole entry): as above

As for `COc1cc2c(OCC34CC3CC(=O)N4)nccc2cc1C(N)=O` (racemic) [Example 29, 7-methoxy-1-[(3-oxo-2-azabicyclo[3.1.0]hex-1-yl)methoxy]isoquinoline-6-carboxamide], the pIC50 was 5.38 in assay [1] and 6.46 in assay [2].

As to `CC[C@@H]1[C@H](F)C(=O)N[C@@H]1COc1cccc2cc(C(N)=O)c(OC)nc12` [Example 1, 8-{[(2S,3S,4S)-3-Ethyl-4-fluoro-5-oxopyrrolidin-2-yl]methoxy}-2-methoxyquinoline-3-carboxamide], the pIC50 in assay [1] is 8.12; in assay [2], 8.70.

Consider `CC(C)Oc1cc2c(OC[C@@H]3CCC(=O)N3)ncc(-c3ncco3)c2cc1C(N)=O` [Example 2, 4-(1,3-Oxazol-2-yl)-1-{[(2S)-5-oxopyrrolidin-2-yl]methoxy}-7-(propan-2-yloxy)isoquinoline-6-carboxamide], for which the negative-log IC50 (pIC50) in assay [1] is 6.73; in assay [2], 8.40.

Consider `Cc1c[nH]c(-c2cnc(OC[C@@H]3CCC(=O)N3)c3cc(OC(C)C)c(C(N)=O)cc23)n1` [Example 3, 4-(4-Methyl-1H-imidazol-2-yl)-1-{[(2S)-5-oxopyrrolidin-2-yl]methoxy}-7-(propan-2-yloxy)isoquinoline-6-carboxamide], for which the pIC50 is 5.54 in assay [1] and 6.64 in assay [2].

Take `CC(C)Oc1cc2c(OC[C@@H]3CCC(=O)N3)ncc(-c3ccn(C)n3)c2cc1C(N)=O` [Example 4, 4-(1-Methyl-1H-pyrazol-3-yl)-1-{[(2S)-5-oxopyrrolidin-2-yl]methoxy}-7-(propan-2-yloxy)isoquinoline-6-carboxamide]: the pIC50 in assay [1] was 6.95; in assay [2] it was 8.00.

As for `CC(C)Oc1cc2c(OC[C@@H]3CCC(=O)N3)ncc(-c3cnn(C)c3)c2cc1C(N)=O` [Example 5, 4-(1-methyl-1H-pyrazol-4-yl)-1-{[(2S)-5-oxopyrrolidin-2-yl]methoxy}-7-(propan-2-yloxy)isoquinoline-6-carboxamide], the pIC50 was 8.43 in assay [1] and 8.96 in assay [2].

Turning to `Cc1coc(-c2cnc(OC[C@@H]3CCC(=O)N3)c3cc(OC(C)C)c(C(N)=O)cc23)n1` [Example 6, 4-(4-Methyl-1,3-oxazol-2-yl)-1-{[(2S)-5-oxopyrrolidin-2-yl]methoxy}-7-(propan-2-yloxy)isoquinoline-6-carboxamide], the results for the negative logarithm of the IC50 (pIC50) in assay [1] and in assay [2] were 6.64 and 8.52, respectively.

With `Cc1nc(-c2cnc(OC[C@@H]3CCC(=O)N3)c3cc(OC(C)C)c(C(N)=O)cc23)oc1C` [Example 7, 4-(4,5-Dimethyl-1,3-oxazol-2-yl)-1-{[(2S)-5-oxopyrrolidin-2-yl]methoxy}-7-(propan-2-yloxy)isoquinoline-6-carboxamide], the negative-log IC50 (pIC50) is 7.24 in assay [1] and 8.49 in assay [2].

In the case of `CC(C)Oc1cc2c(OC[C@@H]3CCC(=O)N3)ncc(-c3nc(CO)c[nH]3)c2cc1C(N)=O` [Example 8, 4-[4-(Hydroxymethyl)-1H-imidazol-2-yl]-1-{[(2S)-5-oxopyrrolidin-2-yl]methoxy}-7-(propan-2-yloxy)isoquinoline-6-carboxamide], the pIC50 in assay [1] was 5.68; in assay [2], 6.72.

For `Cc1cnc(-c2cnc(OC[C@@H]3CCC(=O)N3)c3cc(OC(C)C)c(C(N)=O)cc23)o1` [Example 9, 4-(5-Methyl-1,3-oxazol-2-yl)-1-{[(2S)-5-oxopyrrolidin-2-yl]methoxy}-7-(propan-2-yloxy)isoquinoline-6-carboxamide], the results for the pIC50 in assay [1] and in assay [2] were 7.05 and 8.37, respectively.

As for `CC[C@@H]1CC(=O)N[C@@H]1COc1ncc(NS(=O)(=O)c2ccccc2)c2cc(C(N)=O)c(OC(C)C)cc12` [Example 10, 1-{[(2S,3R)-3-ethyl-5-oxopyrrolidin-2-yl]methoxy}-4-[(phenylsulfonyl)amino]-7-(propan-2-yloxy)isoquinoline-6-carboxamide], the pIC50 in assay [1] was less than 4.00; in assay [2], 5.24.

Consider `CC[C@@H]1CC(=O)N[C@@H]1COc1ncc(NS(=O)(=O)c2cccnc2)c2cc(C(N)=O)c(OC(C)C)cc12` [Example 11, 1-{[(2S,3R)-3-Ethyl-5-oxopyrrolidin-2-yl]methoxy}-7-(propan-2-yloxy)-4-[(pyridin-3-ylsulfonyl)amino]isoquinoline-6-carboxamide], for which the results for the pIC50 in assay [1] and in assay [2] were less than 4.00 and 5.89, respectively.

Regarding `CC[C@@H]1CC(=O)N[C@@H]1COc1ncc(NS(=O)(=O)c2c[nH]cn2)c2cc(C(N)=O)c(OC(C)C)cc12` [Example 12, 1-{[(2S,3R)-3-Ethyl-5-oxopyrrolidin-2-yl]methoxy}-4-[(1H-imidazol-4-ylsulfonyl)amino]-7-(propan-2-yloxy)isoquinoline-6-carboxamide], the pIC50 in assay [1] was less than 4.00; in assay [2] it was 5.19.

`CC[C@@H]1CC(=O)N[C@@H]1COc1ncc(NS(=O)(=O)c2cn(C)cn2)c2cc(C(N)=O)c(OC(C)C)cc12` [Example 13, 1-{[(2S,3R)-3-Ethyl-5-oxopyrrolidin-2-yl]methoxy}-4-{[(1-methyl-1H-imidazol-4-yl)sulfonyl]amino}-7-(propan-2-yloxy)isoquinoline-6-carboxamide]: the pIC50 was less than 4.00 in assay [1] and 4.92 in assay [2].

On to `CC[C@@H]1CC(=O)N[C@@H]1COc1ncc(NS(=O)(=O)c2cn(C)c(C)n2)c2cc(C(N)=O)c(OC(C)C)cc12` [Example 14, 4-{[(1,2-Dimethyl-1H-imidazol-4-yl)sulfonyl]amino}-1-{[(2S,3R)-3-ethyl-5-oxopyrrolidin-2-yl]methoxy}-7-(propan-2-yloxy)isoquinoline-6-carboxamide], for which the negative-log IC50 (pIC50) in assay [1] is 4.54; in assay [2] it was 4.82.

Consider `CC[C@@H]1[C@H](F)C(=O)N[C@@H]1COc1ncc(N)c2cc(C(N)=O)c(OC)cc12` [Example 15, 4-Amino-1-{[(2S,3S,4S)-3-ethyl-4-fluoro-5-oxopyrrolidin-2-yl]methoxy}-7-methoxyisoquinoline-6-carboxamide], for which the pIC50 in assay [1] is 8.66; in assay [2], 9.30.

With `CC(C)Oc1cc2c(OC[C@@H]3NC(=O)[C@@H](F)C34CC4)nccc2cc1C(N)=O` [Example 16, 1-(((4R,7S)-7-fluoro-6-oxo-5-azaspiro[2.4]heptan-4-yl)methoxy)-7-isopropoxyisoquinoline-6-carboxamide], the pIC50 was 5.35 in assay [1] and 6.41 in assay [2].

Turning to `CC(C)Oc1cc2c(OC[C@H]3NC(=O)[C@H](F)C34CC4)nccc2cc1C(N)=O` [Example 17, 1-(((4S,7R)-7-fluoro-6-oxo-5-azaspiro[2.4]heptan-4-yl)methoxy)-7-isopropoxyisoquinoline-6-carboxamide], the results for the pIC50 in assay [1] and in assay [2] were 7.68 and 8.92, respectively.

For the compound `NC(=O)c1cc2ccnc3c2cc1OCCOC[C@H]1C[C@@H](CO3)NC1=O` [Example 28, (3S,6R)-5-oxo-2,3,4,5,6,7,9,10-octahydro-12,14-(ethanediylidene)-3,6-methanopyrido[2,3-l][1,4,11,8]trioxazacyclopentadecine-19-carboxamide], in assay [1], the negative-log IC50 (pIC50) is 5.72.

`CNC(=O)c1cc2ccnc(OC[C@H]3NC(=O)[C@@H](F)[C@H]3C)c2cc1OC` [Example 33, 1-(((2S,3S,4S)-4-fluoro-3-methyl-5-oxopyrrolidin-2-yl)methoxy)-7-methoxy-N-methylisoquinoline-6-carboxamide]: the negative-log IC50 (pIC50) in assay [2] is 5.70.
